Test results: patent US20040121357A1, “Artificial endonuclease” (priority 2004, published 2004)
Entries after “also recorded” stand apart in the source; their conditions may differ. Where no end group is shown, it is not given here.

How the values were obtained:
[1] = system: ^32P-labeled fragment of pBR322; assay: Cleavage of 32P-labeled DNA fragment, acrylamide gel electrophoresis; format: biochemical; settings: 40 μM Ce^4+, 37° C. overnight
Procedure: FIG. 10. Sequence specificity of artificial endonucleases. […] Controls (water) were conducted to measure background cleavage. […] Minor products run with Maxam-Gilbert lanes.
Sequence Selective DNA Cleavage. […] This cleavage is not dependent on the strain inherent in supercoiled plasmid, as cleavage of linearized ^32P-labeled DNA oligonucleotides was observed as well. Labeled fragments were incubated with Ce(NH3)6(NO3)4 and varying concentrations of peptides P3 or P3W at 37° C. overnight and analyzed by acrylamide gel electrophoresis (FIG. 10). Cleavage was concentration dependent, and distinct between metallopeptides.

[2] = Hydrolysis of bis-nitrophenylphosphate (BNPP) followed spectrophotometrically at 400 nm; format: biochemical; settings: for Rates (K(obs)) of BNPP cleavage: 500 μM BNPP, 37° C.
Excerpt: To test hydrolytic activity, the hydrolysis of binitrophenylphosphate (BNPP) is followed. The absorbance increase at 400 nm is due to liberated 4-nitrophenolate which can be monitored over time to give rate constants. The rate reflects the relative accessibility and reactivity of the active site, and can be compared to the rates observed for the hydrolytically active peptide or polypeptide.
Hydrolytic Phosphate Cleavage. Because the EF-Hand is physiologically strictly a structural motif, an isolated Ca-binding loop's ability to affect hydrolytic cleavage was addressed. The hydrolysis of bis-nitrophenylphosphate (BNPP) was followed spectrophotometrically under turnover conditions. The absorbance increase at 400 nm due to liberated 4-nitrophenolate was observed over the initial 10-14 hours of the reaction (<10% BNPP converted). […] Plots of absorbance vs. time were converted to concentration units (ε=18,500 M^−1 cm^−1) to give first order rate constants (Sardesai et al., 1994).

[3] = system: supercoiled plasmid DNA (pBR322); assay: DNA gel shift assay (agarose gel electrophoresis); format: binding; settings: for Gel shift / affinity for supercoiled plasmid DNA (in words): 5-25 μM ligand, 15 minutes, room temperature
Procedure: DNA Gel Shift Assays. The affinity of EuP3, EuP2, and each free peptide for supercoiled plasmid DNA was examined by agarose gel electrophoresis. Plasmid (pBR322, New England Biolabs, Inc.) was incubated for 15 minutes at room temperature with increasing concentrations of each ligand (5-25 μM), prior to the addition of loading dye. Each lane contained 1 μg plasmid (50 μM base pairs) in 10 mM Tris buffer at pH 8.0. […] The interaction of ligand with supercoiled plasmid (type I) can be observed if run under conditions where the DNA-ligand interactions are not disturbed during electrophoresis. Supercoiled pBR322 was chosen as a standard plasmid, and was incubated for 15 minutes with EuCl3, EuP3, EuP2, or free peptide prior to electrophoresis. This small, 4,361 bp plasmid contains three [NT] sequences, and eight […] sequences, partial target sequences for engrailed homeodomain. In the absence of 0.1 M EDTA (normally added prior to electrophoresis to quench hydrolytic cleavage assays) and with short incubation times to minimize metal-catalyzed cleavage, a gel shift can be observed. […] From quantified concentration-dependent gel shift data, an estimate of the binding affinity of EuP3 can be made. Gels with increasing Eu-peptide concentrations (5 to 25 μM in each set) were quantified (ImageQuant; Molecular Simulations), and average band volumes were plotted versus concentration. […] Each graphed point represents data averaged from three gel experiments.

[4] = system: supercoiled plasmid DNA; assay: Cleavage of supercoiled plasmid DNA, agarose gel electrophoresis; format: biochemical; settings: for Dependence of cleavage activity on concentration (in words): increasing metallopeptide concentration
Procedure: FIG. 8. […] Samples containing 1 μg plasmid (about 60 μM b.p.) in 10 mM Tris buffer, pH=7.0, were incubated for 48 hours at 37° C. Reactions were quenched by the addition of 0.5 M EDTA to a final concentration of 10 mM, followed by addition of 100 mM KCl. The reaction mixtures were then treated with Amberlyst cation exchange resin prior to electrophoresis. Lane 1: pUC19 DNA control; lanes 2-5: DNA plus increasing concentrations of EuC13 (20, 30, 50 and 100 μM); lanes 6-9: DNA plus increasing concentrations of free P3 (20, 30, 50 and 100 μM); lanes 10-15: DNA plus increasing concentrations of 1:1 Eu:P3 (10, 20, 30, 40, 50 and 100 μM).
The conversion of supercoiled plasmid (type I) to open circular (type II), linear (type III), or smaller fragments was monitored by agarose gel electrophoresis. Because the synthetic peptides bind strongly to DNA, thus preventing the observation of products, the peptides were chelated prior to electrophoresis (Falke et al., 1994). At the point each reaction was quenched (0.1 M EDTA), a suspension of neutral, washed, cation resin (Amberlyst, 10-20 μL) was incubated with each sample for 30 minutes, spun down, and the supernatent loaded into wells. After 24 hours of reaction (incubated at 37° C.), the concentration-dependent formation of open circular plasmid was observed (FIG. 8). […] Over a 10-300 μM EuP3 gradient, nicking occurred from 10-150 μM, with the greatest amount of cleavage at 30 μM EuP3.

[5] = Circular dichroism titration of peptides with Eu(III) (incl. TFE helix induction); settings: initial portion of the curve (0-50 μM Eu(III)); read-out: Metal binding affinity (K1, Kd) estimated from CD titration
[6] = target: the molecule itself; assay: dimerization constant of Eu(III)-bound P4a (self-association); called 'measured', method not stated
[7] = target: the molecule itself; assay: dimerization constant of Eu(III)-bound P3 (self-association); isothermal titration microcalorimetry
[8] = target: the molecule itself; assay: dimerization constant (self-association) from CD titration of P3 with Eu(III), helicity at 222 nm
Procedure: Circular Dichroism Titrations. The titration of P2 and P3 peptides with Eu(III) and Ca(II) was followed by circular dichroism spectroscopy on an Aviv 60DS spectrophotometer at 25° C. Samples (50 μM peptide) were scanned from 260 to 200 nm (0.1 mm pathlength cell, 1.0 nm bandwidth, 0.5 nm resolution), in 10 mM Tris(hydroxymethyl)aminomethane buffer (Tris; pH=7.8). Eu(III) and Ca(II) were added as the chlorides. Aliquots of 10 mM stock metal solutions were added to a maximum of 10 equivalents.
The secondary structure of P3 as a function of metal was followed by CD, calculating the % α-helicity from the molar ellipticity at 222 nm (100% helical=−31,500 deg cm² dmol⁻¹). With the addition of Eu(III) to P3, the helicity increases from 9 to 25%, showing enhanced structure correlated to metal-coordination. This increase in structure with added metal describes a curve which has an inflection point at approximately 1:1 Eu:P3, then continues to a 25% helical metal-saturated form. […] A second structural change, correlating to the discrete back-to-back dimerization which has been well characterized for similar EF-Hand peptides systems occurs at Kdim about 80 μM (Shaw et al., 1991; Wójcik et al., 1997; Clarke et al., 1993; Shaw et al., 1990; Maurer et al., 1995). […]

[9] = 10-300 μM EuP3 gradient, 37° C.
[10] = 10 μM Eu/10 μM peptide, pH 7.7, 10 mM Tris
[11] = 25 μM Eu/25 μM peptide, pH 7.7, 10 mM Tris
[12] = 25 μM Eu/50 μM peptide, pH 7.7, 10 mM Tris

O=[N+]([O-])[O-].O=[N+]([O-])[O-].O=[N+]([O-])[O-].O=[N+]([O-])[O-].O=[N+]([O-])[O-].O=[N+]([O-])[O-].[Ce+4].[NH4+].[NH4+] [Ce^4+, (NH4)2 Ce(NO3)6]
Regioselectivity of cleavage: termini produced [1]: both 3′ and 5′ termini

[Cl][Eu]([Cl])[Cl] [EuCl3, reference compound]
Rates (K(obs)) of BNPP cleavage ([2]; 10 μM Eu/0 μM peptide, pH 7.7, 5 mM Tris): 5.2 ± 0.6 s^−1 × 10^7
Rates (K(obs)) of BNPP cleavage ([2]; 10 μM Eu/0 μM peptide, pH 7.7, 10 mM Tris): 1.4 s^−1 × 10^7
Rates (K(obs)) of BNPP cleavage ([2]; 12 μM Eu/0 μM peptide, pH 7.7, 5 mM Tris): 5.7 ± 0.3 s^−1 × 10^7
Rates (K(obs)) of BNPP cleavage ([2]; 15 μM Eu/0 μM peptide, pH 7.7, 10 mM Tris): 2.0 s^−1 × 10^7
Rates (K(obs)) of BNPP cleavage ([2]; 20 μM Eu/0 μM peptide, pH 7.7, 5 mM Tris): 19 ± 3 s^−1 × 10^7
Rates (K(obs)) of BNPP cleavage ([2]; 20 μM Eu/0 μM peptide, pH 7.7, 10 mM Tris): 2.7 s^−1 × 10^7
Gel shift / affinity for supercoiled plasmid DNA (in words) [3]: not

EuP3: Eu(III)-bound peptide P3 (1:1 Eu-peptide) (TERRRQQLDKDGDGTIDEREIKIHFQNKRAKIK)
Concentration range in which nicking occurred [4, 9]: 10 to 150 µM
Concentration with the greatest amount of cleavage [4, 9]: 30 µM
Cleavage of supercoiled plasmid DNA (in words) ([4]; 37° C., pUC19 for EuP3, Eu(III) and Ce(IV) complexes for P3W): catalyzes the cleavage of supercoiled, double-stranded DNA; also recorded: cleavage of pUC19 plasmid DNA
Dependence of cleavage activity on concentration (in words) [4]: falls off with increasing concentration
Kd [5]: ≤ 20 µM
BNPP catalysis compared with free Eu(III) (in words) [2]: may not be as fast as free Eu(III) catalysis
Rates (K(obs)) of BNPP cleavage [2, 10]: 6.0 s^−1 × 10^7
Rates (K(obs)) of BNPP cleavage [2, 11]: 7.3 s^−1 × 10^7
Rates (K(obs)) of BNPP cleavage [2, 12]: 20.6 s^−1 × 10^7
Rates (K(obs)) of BNPP cleavage ([2]; 50 μM Eu/50 μM peptide, pH 7.7, 5 mM Tris): 17.5 ± 4 s^−1 × 10^7
Rates (K(obs)) of BNPP cleavage ([2]; 50 μM Eu/100 μM peptide, pH 7.7, 5 mM Tris): 11.5 ± 4 s^−1 × 10^7
Concentration causing a gel shift of supercoiled plasmid DNA ([3]; 50 μM base pairs): ≥ 10 µM
Gel shift / affinity for supercoiled plasmid DNA (in words) [3]: significant affinity for supercoiled plasmid DNA; also recorded: gel shift and disappearance of type I plasmid occurs; also recorded: DNA-binding affinity in the micromolar regime; also recorded: disappearance of type I band
Estimate of DNA binding affinity from quantified gel shift data ([3]; disappearance of type I band, 5 to 25 μM, average of three gels): ~20 µM

EuP4a: Eu(III)-bound peptide P4a (TERRRFDKDGNGYISAAELRHVKIWFQNKRAKIK)
Dependence of cleavage activity on concentration (in words) [4]: does not
Rates (K(obs)) of BNPP cleavage [2, 10]: 11.3 s^−1 × 10^7
Rates (K(obs)) of BNPP cleavage [2, 11]: 56.3 s^−1 × 10^7
Rates (K(obs)) of BNPP cleavage [2, 12]: 62.0 s^−1 × 10^7
Rates (K(obs)) of BNPP cleavage ([2]; 50 μM Eu/50 μM peptide, pH 7.7, 10 mM Tris): 149.5 s^−1 × 10^7
Rates (K(obs)) of BNPP cleavage ([2]; 50 μM Eu/100 μM peptide, pH 7.7, 10 mM Tris): 212.0 s^−1 × 10^7

B1: P4a (peptide)
peptide: TERRRFDKDGNGYISAAELRHVKIWFQNKRAKIK
modifications: also: Eu(III) complex, dimer EuP4a2
notes: The entry describes the monomer; also called EuP4a; EuP4a2 (dimer)
Kd [6]: ≥ 300 µM

B2: P3 (peptide)
peptide: TERRRQQLDKDGDGTIDEREIKIHFQNKRAKIK
modifications: also: Eu(III) complex, Eu(III) organizes two peptides into back-to-back dimer
notes: In the dimerization experiments it stood with Eu(III) (EuCl3); The entry describes the monomer; also called EuP3; peptide P3
Kd [7]: ≥ 80 µM
Kd [8]: ~80 µM
